Values quoted from earlier work in US20210386978A1, “Drug Delivery Devices and Systems for Local Drug Delivery to the Upper Urinary Tract” (TARIS Biomedical LLC, priority 2018, published 2021).
Structures can show the parent of a compound that is named as a salt.

Details: solubility terms in the same block are defined in water at 37° C.

Compound | approximate solubility
Cc1ccc(O)c([C@H](CCN(C(C)C)C(C)C)c2ccccc2)c1 [tolterodine tartrate] | ~12 mg/mL
O=C(O[C@H]1C[C@H]2CC[C@@H](C1)[N+]21CCCC1)C(O)(c1ccccc1)c1ccccc1 [trospium chloride] | ~500 mg/mL
Nc1ccn([C@@H]2O[C@H](CO)[C@@H](O)C2(F)F)c(=O)n1 [gemcitabine HCl] | ~80 mg/mL
Nc1ccn([C@@H]2O[C@H](CO)[C@@H](O)C2(F)F)c(=O)n1 [gemcitabine base] | ~15 mg/mL
